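Growth conditions: 96-well plates. Treatment: test compound, 48 hours, 5 concentrations. Analysis: linear interpolation between bracketing concentrations; unreached endpoints set to highest concentration. GI50 marks 50% less growth. TGI marks complete inhibition of growth.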
Columns and labels:
Test in all cases: NCI anticancer screen, dose series, 48 h
SR leukemia = system: SR leukemia
TK-10 renal = system: TK-10 renal
SK-MEL-2 melanoma = system: SK-MEL-2 melanoma
K-562 leukemia = system: K-562 leukemia
XF 498 CNS = system: XF 498 CNS
DMS 273 small cell lung = system: DMS 273 small cell lung
SNB-19 CNS = system: SNB-19 CNS
SNB-75 CNS = system: SNB-75 CNS
KM12 colon = system: KM12 colon
ACHN renal = system: ACHN renal
NCI-H460 lung = system: NCI-H460 lung
HS 578T breast = system: HS 578T breast

Row | Compound | TGI (SR leukemia) [µM] | TGI (TK-10 renal) [µM] | TGI (SK-MEL-2 melanoma) [µM] | TGI (K-562 leukemia) [µM] | TGI (XF 498 CNS) [µM] | TGI (DMS 273 small cell lung) [µM] | TGI (SNB-19 CNS) [µM] | TGI (SNB-75 CNS) [µM] | TGI (KM12 colon) [µM] | TGI (ACHN renal) [µM] | TGI (NCI-H460 lung) [µM] | TGI (HS 578T breast) [µM] | GI50 (TK-10 renal) [µM] | GI50 (NCI-H460 lung) [µM] | GI50 (SK-MEL-2 melanoma) [µM] | GI50 (SNB-19 CNS) [µM] | GI50 (SNB-75 CNS) [µM] | GI50 (KM12 colon) [µM] | GI50 (ACHN renal) [µM] | GI50 (HS 578T breast) [µM]
1 | CCCCCCCCC[C@@H]1C[C@H](O)[C@H](Cc2ccccc2)N1C(=O)OC(C)(C)C | 46.2 | 29.2 | 30.3 | > 100 | 37 | 32.8 | 33.5 | 38.1 | 35.2 | 30.8 |  |  |  |  |  |  |  |  |  | 
2 | O=c1n(CC2CO2)c2ccccc2n1CC1CS1 (stereo not drawn) | > 100 | > 100 | > 100 | > 100 | > 100 | > 100 | > 100 |  | > 100 | > 100 | > 100 |  |  |  |  |  |  |  |  | 
3 | O=[N+]([O-])c1cnccc1-n1nnc2ccccc21 |  |  | 35.8 | > 100 | 27.1 | 27.2 | > 100 | 54.1 | 40.7 |  | > 87 |  |  |  |  |  |  |  |  | 
4 | c1ccc2c(CCNC3=NCCO3)cccc2c1 | > 10 | > 10 | > 10 | > 10 |  |  | > 10 | > 10 | > 10 | > 10 | > 10 | > 10 |  |  |  |  |  |  |  | 
5 | O=C(O)c1cc2sc(C(=O)O)cc2s1 | > 100 | > 100 |  | > 100 | > 100 | > 100 | > 100 | > 100 | > 100 |  | > 100 |  |  |  |  |  |  |  |  | 
6 | O=[N+]([O-])c1ccc(N/N=C\c2ccc(O)cc2O)nc1 |  | > 100 | > 100 |  |  |  | > 100 | > 100 | > 100 | 21.3 | > 100 | > 100 | 5.09 | 0.797 | 5.21 | 3.24 | 9.77 | 1.91 | 0.599 | 38.3
7 | Nc1[nH]nc2c1Cc1c(n(Cc3ccc(Cl)cc3)c3ccccc13)C(=O)N2 | > 100 | 35 | 34.3 | > 100 |  |  |  | 30.6 |  |  | 27.3 | 40.2 |  |  |  |  |  |  |  | 
8 | CC(=O)Nc1ccc(C(=O)NN2C(=O)C(Cl)C2/C=C/c2ccccc2)cc1 (stereo not drawn) | > 100 | > 100 | > 100 | > 100 |  |  | > 100 | > 100 | > 100 | > 100 | > 100 |  |  |  |  |  |  |  |  | 
9 | CSc1nc(NC2OC(CO)C(O)C(O)C2O)c(N)c(=O)[nH]1 (stereo not drawn) |  |  | > 100 | > 100 | > 100 | > 100 | > 100 | > 100 | > 100 |  | > 100 |  |  |  |  |  |  |  |  | 
10 | COC(=O)C(Cc1cc(OC)c(OC)c(OC)c1)(NC(=O)c1ccccc1)P(=O)(OC)OC (stereo not drawn) | > 100 | > 100 | > 100 | > 100 | > 100 | > 100 | > 100 | > 100 | > 100 | > 100 | > 100 |  |  |  |  |  |  |  |  | 
11 | O=C1CN2CCN(CC2)CC(=O)Nc2ccc(cc2)S(=O)(=O)c2ccc(cc2)NC(=O)CN2CCN(CC2)CC(=O)Nc2ccc(cc2)S(=O)(=O)c2ccc(cc2)N1 | > 100 | > 100 | > 92.3 | > 100 |  |  | > 100 | > 100 | > 100 | > 100 | 38.4 | > 100 |  |  |  |  |  |  |  | 
